# Results taken from ChEMBL document CHEMBL3124838, “Discovery of 6-aryl-azabenzimidazoles that inhibit the TBK1/IKK-ε kinases” (Bioorg Med Chem Lett, 2014).
# Experiments:
# [1] = target: Mitogen-activated protein kinase 8 (Homo sapiens) (UniProt P45983); experiment: Inhibition of human JNK1alpha1 assessed as residual activity at 1 uM relative to control
# [2] = target: Phosphatidylinositol 4-phosphate 5-kinase type-1 alpha (Homo sapiens) (UniProt Q99755); experiment: Inhibition of human PIP5K1alpha assessed as residual activity at 1 uM relative to control
# [3] = target: Mitogen-activated protein kinase 14 (Homo sapiens) (UniProt Q16539); experiment: Inhibition of human SAPK2alpha assessed as residual activity at 1 uM relative to control
# [4] = target: T1, Ephrin type-B receptor 1 (Homo sapiens) (UniProt P54762); experiment: Inhibition of human EPHB1 assessed as residual activity at 1 uM relative to control
# T1 sequence (whole entry): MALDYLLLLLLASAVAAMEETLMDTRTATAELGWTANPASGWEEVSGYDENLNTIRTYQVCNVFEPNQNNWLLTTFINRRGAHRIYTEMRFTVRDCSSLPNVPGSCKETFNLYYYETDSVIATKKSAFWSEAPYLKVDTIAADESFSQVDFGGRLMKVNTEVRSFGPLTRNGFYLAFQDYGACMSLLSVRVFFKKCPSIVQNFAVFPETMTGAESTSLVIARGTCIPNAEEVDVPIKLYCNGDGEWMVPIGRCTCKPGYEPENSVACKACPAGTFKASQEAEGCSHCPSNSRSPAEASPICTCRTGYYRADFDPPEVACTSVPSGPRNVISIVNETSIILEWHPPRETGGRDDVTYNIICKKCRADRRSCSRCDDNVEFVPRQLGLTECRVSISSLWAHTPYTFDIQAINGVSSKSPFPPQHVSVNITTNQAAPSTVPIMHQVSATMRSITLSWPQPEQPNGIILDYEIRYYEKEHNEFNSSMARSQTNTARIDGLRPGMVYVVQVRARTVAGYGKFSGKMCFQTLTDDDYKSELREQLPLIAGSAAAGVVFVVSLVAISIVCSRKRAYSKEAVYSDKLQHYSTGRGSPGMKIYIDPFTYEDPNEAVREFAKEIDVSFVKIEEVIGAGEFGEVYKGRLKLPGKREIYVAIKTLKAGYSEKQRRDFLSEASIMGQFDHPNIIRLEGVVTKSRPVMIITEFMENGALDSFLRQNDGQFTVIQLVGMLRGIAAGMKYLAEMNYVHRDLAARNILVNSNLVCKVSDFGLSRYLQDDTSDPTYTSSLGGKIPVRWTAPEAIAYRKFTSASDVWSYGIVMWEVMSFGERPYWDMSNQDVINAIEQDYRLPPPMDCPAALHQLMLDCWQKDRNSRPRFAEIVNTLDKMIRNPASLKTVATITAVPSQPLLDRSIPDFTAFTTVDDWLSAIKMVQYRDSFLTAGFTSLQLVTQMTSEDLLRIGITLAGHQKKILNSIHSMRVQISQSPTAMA
# [5] = target: Serine/threonine-protein kinase MARK2 (Homo sapiens) (UniProt Q7KZI7); experiment: Inhibition of human PAR-1Balpha assessed as residual activity at 1 uM relative to control
# [6] = target: Rho-associated protein kinase 2 (Homo sapiens) (UniProt O75116); experiment: Inhibition of human ROCK-2 assessed as residual activity at 1 uM relative to control
# Chain of Rho-associated protein kinase 2 (Homo sapiens) (O75116 whole entry, looked up): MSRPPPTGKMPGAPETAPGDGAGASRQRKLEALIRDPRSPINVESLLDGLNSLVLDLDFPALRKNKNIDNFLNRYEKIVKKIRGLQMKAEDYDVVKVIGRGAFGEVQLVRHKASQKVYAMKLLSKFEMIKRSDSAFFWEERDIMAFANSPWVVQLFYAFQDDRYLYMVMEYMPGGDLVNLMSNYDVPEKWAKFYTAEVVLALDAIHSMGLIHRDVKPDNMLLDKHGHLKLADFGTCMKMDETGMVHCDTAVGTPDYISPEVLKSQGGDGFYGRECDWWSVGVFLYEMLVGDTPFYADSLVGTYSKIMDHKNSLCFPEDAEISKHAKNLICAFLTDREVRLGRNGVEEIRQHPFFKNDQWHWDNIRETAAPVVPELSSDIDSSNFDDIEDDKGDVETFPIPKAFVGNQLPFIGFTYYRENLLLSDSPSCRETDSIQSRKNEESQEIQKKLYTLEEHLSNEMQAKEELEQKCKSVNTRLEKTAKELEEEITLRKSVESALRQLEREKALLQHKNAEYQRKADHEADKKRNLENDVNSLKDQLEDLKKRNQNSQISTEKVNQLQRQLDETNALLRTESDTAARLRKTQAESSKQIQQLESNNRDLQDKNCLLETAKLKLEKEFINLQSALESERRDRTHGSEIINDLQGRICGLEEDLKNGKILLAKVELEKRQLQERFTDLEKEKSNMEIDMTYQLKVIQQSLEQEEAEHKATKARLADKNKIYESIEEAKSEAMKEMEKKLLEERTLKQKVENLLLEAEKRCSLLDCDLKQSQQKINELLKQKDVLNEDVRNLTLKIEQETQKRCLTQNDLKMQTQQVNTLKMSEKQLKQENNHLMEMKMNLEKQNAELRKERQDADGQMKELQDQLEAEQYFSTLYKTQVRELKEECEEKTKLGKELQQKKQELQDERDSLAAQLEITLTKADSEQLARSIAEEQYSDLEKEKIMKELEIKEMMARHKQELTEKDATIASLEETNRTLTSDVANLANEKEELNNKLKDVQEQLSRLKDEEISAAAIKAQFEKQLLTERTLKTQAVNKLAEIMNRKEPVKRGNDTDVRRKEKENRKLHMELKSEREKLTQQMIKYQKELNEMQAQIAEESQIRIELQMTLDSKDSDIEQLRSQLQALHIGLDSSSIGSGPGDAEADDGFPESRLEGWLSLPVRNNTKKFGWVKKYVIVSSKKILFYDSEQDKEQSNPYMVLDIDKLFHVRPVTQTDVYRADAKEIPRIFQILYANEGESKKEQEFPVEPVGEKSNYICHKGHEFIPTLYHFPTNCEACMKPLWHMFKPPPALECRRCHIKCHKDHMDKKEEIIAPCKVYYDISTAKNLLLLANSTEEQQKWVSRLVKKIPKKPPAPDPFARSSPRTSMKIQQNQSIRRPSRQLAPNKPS
# Chain of Phosphatidylinositol 4-phosphate 5-kinase type-1 alpha (Homo sapiens) (Q99755 whole entry): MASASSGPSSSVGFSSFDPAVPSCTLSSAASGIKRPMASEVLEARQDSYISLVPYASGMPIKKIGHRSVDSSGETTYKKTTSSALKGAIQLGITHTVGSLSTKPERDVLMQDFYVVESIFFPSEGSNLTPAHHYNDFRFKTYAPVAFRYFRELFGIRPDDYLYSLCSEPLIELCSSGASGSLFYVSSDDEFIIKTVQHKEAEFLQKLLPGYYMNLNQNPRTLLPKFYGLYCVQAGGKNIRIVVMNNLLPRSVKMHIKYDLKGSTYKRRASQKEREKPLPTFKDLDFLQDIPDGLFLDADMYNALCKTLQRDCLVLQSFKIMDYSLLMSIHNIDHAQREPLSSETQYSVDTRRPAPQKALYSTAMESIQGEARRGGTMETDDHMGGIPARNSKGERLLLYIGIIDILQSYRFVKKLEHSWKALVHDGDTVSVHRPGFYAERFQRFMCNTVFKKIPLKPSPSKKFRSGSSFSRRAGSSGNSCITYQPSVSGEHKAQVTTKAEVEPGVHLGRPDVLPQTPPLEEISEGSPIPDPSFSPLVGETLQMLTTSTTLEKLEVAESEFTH
# Chain of Serine/threonine-protein kinase MARK2 (Homo sapiens) (Q7KZI7 whole entry): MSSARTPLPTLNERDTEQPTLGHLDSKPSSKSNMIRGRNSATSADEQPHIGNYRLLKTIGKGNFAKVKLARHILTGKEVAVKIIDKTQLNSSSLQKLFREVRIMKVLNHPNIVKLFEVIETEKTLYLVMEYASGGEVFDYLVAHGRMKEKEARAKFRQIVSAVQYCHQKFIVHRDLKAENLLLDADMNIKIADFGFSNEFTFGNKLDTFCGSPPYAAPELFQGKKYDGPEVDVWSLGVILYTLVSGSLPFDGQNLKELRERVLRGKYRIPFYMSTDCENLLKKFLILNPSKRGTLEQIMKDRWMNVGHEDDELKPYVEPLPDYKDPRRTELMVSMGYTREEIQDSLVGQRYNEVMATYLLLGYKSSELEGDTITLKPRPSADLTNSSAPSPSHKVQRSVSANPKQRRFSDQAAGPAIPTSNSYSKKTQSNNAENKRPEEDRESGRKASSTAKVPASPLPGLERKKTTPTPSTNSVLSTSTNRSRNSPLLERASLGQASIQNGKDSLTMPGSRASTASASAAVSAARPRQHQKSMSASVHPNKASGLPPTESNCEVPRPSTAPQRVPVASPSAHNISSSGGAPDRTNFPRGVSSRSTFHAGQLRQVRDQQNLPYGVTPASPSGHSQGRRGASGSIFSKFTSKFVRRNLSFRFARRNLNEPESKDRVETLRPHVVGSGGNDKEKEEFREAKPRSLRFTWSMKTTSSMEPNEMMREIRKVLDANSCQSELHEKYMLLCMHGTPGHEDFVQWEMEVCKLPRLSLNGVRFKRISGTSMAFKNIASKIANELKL
# Chain of Mitogen-activated protein kinase 8 (Homo sapiens) (P45983 whole entry): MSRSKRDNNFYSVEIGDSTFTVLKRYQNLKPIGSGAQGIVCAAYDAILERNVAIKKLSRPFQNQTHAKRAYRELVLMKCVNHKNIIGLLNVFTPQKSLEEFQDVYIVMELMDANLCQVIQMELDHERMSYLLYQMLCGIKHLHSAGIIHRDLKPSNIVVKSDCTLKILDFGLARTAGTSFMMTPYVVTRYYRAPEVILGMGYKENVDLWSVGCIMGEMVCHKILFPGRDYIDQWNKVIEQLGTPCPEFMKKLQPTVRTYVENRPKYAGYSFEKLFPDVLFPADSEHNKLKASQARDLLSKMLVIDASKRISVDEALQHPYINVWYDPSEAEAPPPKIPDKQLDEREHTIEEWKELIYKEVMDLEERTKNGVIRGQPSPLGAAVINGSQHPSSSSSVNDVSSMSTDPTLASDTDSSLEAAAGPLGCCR
# Chain of Mitogen-activated protein kinase 14 (Homo sapiens) (Q16539 whole entry): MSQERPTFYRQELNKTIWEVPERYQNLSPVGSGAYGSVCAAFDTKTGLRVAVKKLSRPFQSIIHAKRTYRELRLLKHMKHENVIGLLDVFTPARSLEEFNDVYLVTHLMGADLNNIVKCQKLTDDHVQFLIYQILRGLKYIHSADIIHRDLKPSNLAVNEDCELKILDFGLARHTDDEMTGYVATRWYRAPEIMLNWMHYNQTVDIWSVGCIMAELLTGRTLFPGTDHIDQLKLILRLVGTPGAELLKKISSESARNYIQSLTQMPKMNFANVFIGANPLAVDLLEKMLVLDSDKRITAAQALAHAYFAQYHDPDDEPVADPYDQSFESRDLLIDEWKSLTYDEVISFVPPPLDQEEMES
Compound,Activity [1] [%],Activity [2] [%],Activity [3] [%],Activity [4] [%],Activity [5] [%],Activity [6] [%]
COc1ccc(-c2nc3cc(-c4csc(C(=O)NCC(C)(C)C)c4)cnc3[nH]2)cc1,98,95,93,74,67,108
COc1ccc(-c2nc3cc(-c4csc(C(=O)NCCC(C)C)c4)cnc3[nH]2)cc1,98,99,111,76,54,102
COc1ccc(-c2nc3cc(-c4csc(C(=O)NCC(C)C)c4)cnc3[nH]2)cc1,117,99,107,72,52,108
